Laboratory results from US20200024278A1, “COMPOSITION COMPRISING ANTIBIOTIC COMPOUND AND AN HETEROCYCLIC COMPOUND AND THEIR USE IN PREVENTING OR TREATING BACTERIAL INFECTIONS” (MUTABILIS, priority 2016, published 2020).

Key:
Experiment in all cases: MIC, broth microdilution (CLSI), substance alone or ATB combined with compound at 4 or 8 μg/mL
[1] = system: ECO 190317; type: cell-based, E. coli; conditions: ECO 190317; for MIC ATB combined with Example: Example @4 μg/ml
Method in brief: (§1)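 Broth microdilution; ca-MHB; 5·10^5 CFU/mL; 35° C, 16-20 h; compound alone or fixed 4/8 μg/mL with antibiotic series; endpoint = no visible growth.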

[2] = system: ECO UFR39; type: cell-based, E. coli; conditions: ECO UFR39; for MIC ATB combined with Example: Example @4 μg/ml; for MIC ATB combined with Example compound: compound @4 μg/ml
Method in brief: as §1

[3] = system: KPN 6299; type: cell-based, K. pneumoniae; conditions: for MIC ATB combined with Example: Example @4 μg/ml
Method in brief: as §1

[4] = system: KPN BAA-1898; type: cell-based, K. pneumoniae; conditions: KPN BAA-1898; for MIC ATB combined with Example: Example @4 μg/ml
Method in brief: as §1

[5] = system: KPN UFR42; type: cell-based, K. pneumoniae; conditions: KPN UFR42; for MIC ATB combined with Example: Example @4 μg/ml; for MIC ATB combined with Example compound: compound @4 μg/ml
Method in brief: as §1

[6] = system: ECL P99; type: cell-based, E. cloacae; conditions: ECL P99; for MIC ATB combined with Example: Example @4 μg/ml
Method in brief: as §1

[7] = system: PAE 105250; type: cell-based, P. aeruginosa; conditions: PAE 105250; for MIC ATB combined with Example: Example @4 μg/ml; for MIC ATB combined with Example compound: compound @4 μg/ml
Method in brief: as §1

[8] = system: PAE UFR48; type: cell-based, P. aeruginosa; conditions: PAE UFR48; for MIC ATB combined with Example: Example @4 μg/ml; for MIC ATB combined with Example compound: compound @4 μg/ml
Method in brief: as §1

[9] = system: PAE UFR90; type: cell-based, P. aeruginosa; conditions: PAE UFR90; for MIC ATB combined with Example: Example @4 μg/ml; for MIC ATB combined with Example compound: compound @4 μg/ml
Method in brief: as §1

[10] = system: SAU 29213; type: cell-based, S. aureus; conditions: for MIC ATB combined with Example / MIC ATB combined with Example compound: SAU 29213; for MIC ATB combined with Example: Example @4 μg/ml; for MIC ATB combined with Example compound: compound @4 μg/ml
Method in brief: as §1

[11] = system: SPN 49619; type: cell-based, S. pneumoniae; conditions: SPN 49619; for MIC ATB combined with Example: Example @4 μg/ml; for MIC ATB combined with Example compound: compound @4 μg/ml
Method in brief: as §1

MIC ATB combined with Example ([1]; ATB ATM): <0.031 µg/mL | MIC ATB combined with Example ([1]; ATB FEP): <0.031 µg/mL | MIC ATB combined with Example ([1]; ATB FOS): <0.125 µg/mL | MIC ATB combined with Example ([1]; ATB MEM): <0.031 µg/mL | MIC ATB combined with Example ([1]; ATB PIP): <0.031 µg/mL | MIC ATB combined with Example compound ([1]; MIC of CIP, compound @4 μg/ml): <0.031 µg/mL | MIC ([1]; substance alone): 0.5 µg/mL | MIC ATB combined with Example ([2]; ATB ATM): <0.031 µg/mL | MIC ATB combined with Example ([2]; ATB FEP): <0.031 µg/mL | MIC ATB combined with Example ([2]; ATB FOS): <0.125 µg/mL | MIC ATB combined with Example ([2]; ATB MEM): <0.031 µg/mL | MIC ATB combined with Example ([2]; ATB PIP): <0.031 µg/mL | MIC ATB combined with Example compound ([2]; MIC of CIP): <0.031 µg/mL | MIC ATB combined with Example compound ([2]; MIC of CPO): <0.031 µg/mL | MIC ([2]; substance alone): 0.5 µg/mL | MIC ATB combined with Example ([3]; ATB ATM): <0.031 µg/mL | MIC ATB combined with Example ([3]; ATB FEP): <0.031 µg/mL | MIC ATB combined with Example ([3]; ATB FOS): <0.125 µg/mL | MIC ATB combined with Example ([3]; ATB MEM): <0.031 µg/mL | MIC ATB combined with Example ([3]; ATB PIP): <0.031 µg/mL | MIC ATB combined with Example compound ([3]; MIC of CIP, compound @4 μg/ml): <0.031 µg/mL | MIC ATB combined with Example ([4]; ATB ATM): <0.031 µg/mL | MIC ATB combined with Example ([4]; ATB FEP): <0.031 µg/mL | MIC ATB combined with Example ([4]; ATB FOS): <0.125 µg/mL | MIC ATB combined with Example ([4]; ATB MEM): <0.031 µg/mL | MIC ATB combined with Example ([4]; ATB PIP): <0.031 µg/mL | MIC ATB combined with Example compound ([4]; MIC of CIP, compound @4 μg/ml): <0.031 µg/mL | MIC ([4]; substance alone): 1 µg/mL | MIC ATB combined with Example ([5]; ATB ATM): <0.031 µg/mL | MIC ATB combined with Example ([5]; ATB FEP): <0.031 µg/mL | MIC ATB combined with Example ([5]; ATB FOS): <0.125 µg/mL | MIC ATB combined with Example ([5]; ATB MEM): <0.031 µg/mL | MIC ATB combined with Example ([5]; ATB PIP): <0.031 µg/mL | MIC ATB combined with Example compound ([5]; MIC of CIP): <0.031 µg/mL | MIC ATB combined with Example compound ([5]; MIC of CPO): <0.031 µg/mL | MIC ([5]; substance alone): 2 µg/mL | MIC ATB combined with Example ([6]; ATB ATM): <0.031 µg/mL | MIC ATB combined with Example ([6]; ATB FEP): <0.031 µg/mL | MIC ATB combined with Example ([6]; ATB FOS): <0.125 µg/mL | MIC ATB combined with Example ([6]; ATB MEM): <0.031 µg/mL | MIC ATB combined with Example ([6]; ATB PIP): <0.031 µg/mL | MIC ATB combined with Example compound ([6]; MIC of CIP, compound @4 μg/ml): <=0.031 μg/mL | MIC ([6]; substance alone): 1 µg/mL | MIC ATB combined with Example ([7]; ATB ATM): 8 µg/mL | MIC ATB combined with Example ([7]; ATB FEP): 4 µg/mL | MIC ATB combined with Example ([7]; ATB FOS): >128 µg/mL | MIC ATB combined with Example ([7]; ATB MEM): 2 µg/mL | MIC ATB combined with Example ([7]; ATB PIP): >32 µg/mL | MIC ATB combined with Example compound ([7]; MIC of CIP): 0.125 µg/mL | MIC ATB combined with Example compound ([7]; MIC of CPO): 8 µg/mL | MIC ([7]; substance alone): 32 µg/mL | MIC ATB combined with Example ([8]; ATB ATM): 8 µg/mL | MIC ATB combined with Example ([8]; ATB FEP): 16 µg/mL | MIC ATB combined with Example ([8]; ATB FOS): 32 µg/mL | MIC ATB combined with Example ([8]; ATB MEM): 0.25 µg/mL | MIC ATB combined with Example ([8]; ATB PIP): 16 µg/mL | MIC ATB combined with Example compound ([8]; MIC of CIP): 4 µg/mL | MIC ATB combined with Example compound ([8]; MIC of CPO): >32 µg/mL | MIC ([8]; substance alone): 32 µg/mL | MIC ATB combined with Example ([9]; ATB ATM): 16 µg/mL | MIC ATB combined with Example ([9]; ATB FEP): 4 µg/mL | MIC ATB combined with Example ([9]; ATB FOS): 8 µg/mL | MIC ATB combined with Example ([9]; ATB MEM): 1 µg/mL | MIC ATB combined with Example ([9]; ATB PIP): >32 µg/mL | MIC ATB combined with Example compound ([9]; MIC of CIP): 1 µg/mL | MIC ATB combined with Example compound ([9]; MIC of CPO): 8 µg/mL | MIC ([9]; substance alone): >32 µg/mL | MIC ATB combined with Example ([10]; ATB ATM): <0.031 µg/mL | MIC ATB combined with Example ([10]; ATB FEP): <0.031 µg/mL | MIC ATB combined with Example ([10]; ATB FOS): <=0.125 μg/mL | MIC ATB combined with Example ([10]; ATB MEM): <=0.031 μg/mL | MIC ATB combined with Example ([10]; ATB PIP): <0.031 µg/mL | MIC ATB combined with Example compound ([10]; MIC of CIP): <0.031 µg/mL | MIC ATB combined with Example compound ([10]; MIC of CLI): <0.0010 µg/mL | MIC ATB combined with Example compound ([10]; MIC of CPO): <0.031 µg/mL | MIC ATB combined with Example compound ([10]; MIC of DAP): <0.0020 µg/mL | MIC ATB combined with Example compound ([10]; MIC of ERY): <0.0020 µg/mL | MIC ATB combined with Example compound ([10]; MIC of LZD): <0.0078 µg/mL | MIC ATB combined with Example compound ([10]; MIC of RIF): <0.00012 µg/mL | MIC ATB combined with Example compound ([10]; MIC of SYN): <0.0020 µg/mL | MIC ATB combined with Example compound ([10]; MIC of VAN): <0.0039 µg/mL | MIC ([10]; substance alone, SAU 29213 (MSSA 29213)): 4 µg/mL | MIC ATB combined with Example ([11]; ATB ATM): >32 µg/mL | MIC ATB combined with Example ([11]; ATB FEP): <=0.031 μg/mL | MIC ATB combined with Example ([11]; ATB FOS): 8 µg/mL | MIC ATB combined with Example ([11]; ATB MEM): <=0.031 μg/mL | MIC ATB combined with Example ([11]; ATB PIP): 0.5 µg/mL | MIC ATB combined with Example compound ([11]; MIC of CIP): <=0.031 μg/mL | MIC ATB combined with Example compound ([11]; MIC of CLI): <0.0010 µg/mL | MIC ATB combined with Example compound ([11]; MIC of CPO): <=0.031 μg/mL | MIC ATB combined with Example compound ([11]; MIC of DAP): 0.031 µg/mL | MIC ATB combined with Example compound ([11]; MIC of ERY): <0.0020 µg/mL | MIC ATB combined with Example compound ([11]; MIC of LZD): 0.125 µg/mL | MIC ATB combined with Example compound ([11]; MIC of RIF): 0.00049 µg/mL | MIC ATB combined with Example compound ([11]; MIC of SYN): 0.5 µg/mL | MIC ATB combined with Example compound ([11]; MIC of VAN): 0.0078 µg/mL | MIC ([11]; substance alone): 4 µg/mL
Compound: O=C1N2CC(n3ccnn3)=C[C@H](C2)N1OS(=O)(=O)[O-].[Na+] [Example 16, sodium [(5R)-7-oxo-3-(triazol-1-yl)-1,6-diazabicyclo[3.2.1]oct-3-en-6-yl] sulfate]
